Test results: the NIST ThermoML archive (doi:10.1016/j.jct.2013.10.031)

Conditions: for vapor or sublimation pressure: Liquid, Closed cell (Static) method; for mass density: Gas, Burnett expansion method

FCC(F)(F)F [1,1,1,2-tetrafluoroethane]
Conditions | vapor or sublimation pressure [kPa]
252.12 K | 127.2
256.18 K | 151.4
260.19 K | 178.5
264.2 K | 209.6
268.21 K | 244.3
272.14 K | 283
276.09 K | 326.1
280.13 K | 374.9
284.1 K | 428.7
288.09 K | 487
292.13 K | 554.1
296.32 K | 630.3
300.17 K | 707.1
304.12 K | 792.4
308.12 K | 887
312.19 K | 991.8
316.2 K | 1103.5
320.09 K | 1220.6

N#N [nitrogen]
mass density [kg/m3]
Conditions | 634.95 kPa | 845.67 kPa | 1127.1 kPa | 1502.9 kPa | 2004.5 kPa
322.97 K | – | 8.818 | 11.749 | – | 20.889
322.98 K | 6.619 | – | – | 15.668 | –

CCC [propane]
Conditions | vapor or sublimation pressure [kPa]
252.1 K | 236
256.21 K | 273.3
260.1 K | 311.1
264.21 K | 358.7
268.09 K | 406
272.13 K | 460.2
276.14 K | 519.7
280.21 K | 585.8
284.09 K | 653.2
288.1 K | 731.4
292.1 K | 814.2
296.21 K | 906.2
300.18 K | 1001.8
304.19 K | 1107.5
308.18 K | 1219.8
312.17 K | 1339.6
316.2 K | 1468.9
320.19 K | 1606.7
